Consider two compounds from US7628979B1, “Use of calco oil blue V in bait formulations for marking and controlling subterranean termites” (The United States of America as represented by the …, priority 2005, dated 2009).

The subject of experiment [1] is Formosan subterranean termites. In words: In-field marking and control, bait at infested trees, sites 1 and 2. In kind it is in vivo. As to conditions: 250 ppm bait. The source says: (§1) Formosan subterranean termite and native subterranean termite infested trees (Water Oaks and Legastrums) in New Orleans, La. were chosen for this study. Three sites were selected located at the Southern Regional Research Center campus. Site 1 was located near the service building next to an old water oak tree, site 2 was located in the compound area near ligastrum trees, and site 3 near ligastrum trees outside the compound area. Sites 1 and 2 were active with Formosan subterranean termites and site 3 with Eastern subterranean termites.
(§2) The colored bait matrix at 250 ppm was encapsulated as described above and placed directly in the base of the trees where termites were foraging, making sure that the encapsulated colored bait matrix was covered with soil or with a piece of wood or brick on top of it to prevent desiccation. The bait was periodically inspected for consumption and termite activity. The field study started in early August and was completed by the end of the following June. During winter (December-February) termite activity decreased considerably, but by April termite activity and foraging resumed and the blue colored matrix was replaced by bait formulation containing 250 ppm of chitin synthesis inhibitors to kill the colonies. Diflubenzuron was used in 2 of the sites and chlorfluazuron was used in the remaining site.

Experiment [2] deals with Eastern subterranean termites. In words: In-field marking and control, bait at infested trees, site 3. The conditions noted are these: Site 3 (Ligastrum), 250 ppm bait. The format is in vivo.
Excerpt: as §1, §2

Consider `O=C(NC(=O)c1c(F)cccc1F)Nc1cc(Cl)c(Oc2ncc(C(F)(F)F)cc2Cl)c(Cl)c1` [Chlorfluazuron, 1-[3,5-dichloro-4-(3-chloro-5-trifluoromethyl-2-pyridyloxy)phenyl]-3-(2,6-difluorobenzoyl)urea, reference compound], for which the “Bait consumption” value in experiment [1] (Site 2 (Ligastrum), day 7) amounted to 0 g; in experiment [1] (Site 2 (Ligastrum), day 14), 0 g; in experiment [1] (Site 2 (Ligastrum), day 21), 0 g; in experiment [1] (Site 2 (Ligastrum), day 27), 0 g; in experiment [1] (Site 2 (Ligastrum), day 46), 0 g; in experiment [1] (Site 2 (Ligastrum), day 56), 0 g. Further, the “Bait consumption” value in experiment [1] (Site 2 (Ligastrum), day 73) worked out at 0 g; in experiment [1] (Site 2 (Ligastrum), day 83), 0 g; in experiment [1] (Site 2 (Ligastrum), day 102), 0 g; in experiment [1] (Site 2 (Ligastrum), day 159) it was 0 g; in experiment [1] (Site 2 (Ligastrum), day 221), 0 g; in experiment [1] (Site 2 (Ligastrum), day 251), 450 g. In addition, the “Bait consumption” value in experiment [1] (Site 2 (Ligastrum), day 281) is given as 750 g.
In the case of `O=C(NC(=O)c1c(F)cccc1F)Nc1ccc(Cl)cc1` [Diflubenzuron, 1-(4-chlorophenyl)-3-(2,6-difluorobenzoyl)urea, reference compound], the “Bait consumption” value in experiment [2] (day 7), in experiment [2] (day 14), in experiment [2] (day 21), in experiment [2] (day 27), in experiment [2] (day 46) and in experiment [2] (day 56) was 0 g throughout. In addition, the “Bait consumption” value in experiment [2] (day 73) is given as 0 g; in experiment [2] (day 83) it was 0 g; in experiment [2] (day 102) it was 0 g; in experiment [2] (day 159) it was 0 g; in experiment [2] (day 221), 0 g; in experiment [2] (day 251), 150 g. Also, the “Bait consumption” value is listed as 300 g in experiment [2] (day 281); 0 g in experiment [1] (Site 1 (Water Oak), day 7); 0 g in experiment [1] (Site 1 (Water Oak), day 14); 0 g in experiment [1] (Site 1 (Water Oak), day 21); 0 g in experiment [1] (Site 1 (Water Oak), day 27); 0 g in experiment [1] (Site 1 (Water Oak), day 46). Also, the “Bait consumption” value in experiment [1] (Site 1 (Water Oak), day 56) was determined as 0 g; in experiment [1] (Site 1 (Water Oak), day 73), 0 g; in experiment [1] (Site 1 (Water Oak), day 83), 0 g; in experiment [1] (Site 1 (Water Oak), day 102) it was 0 g; in experiment [1] (Site 1 (Water Oak), day 159) it was 0 g; in experiment [1] (Site 1 (Water Oak), day 221) it was 0 g. The “Bait consumption” value in experiment [1] (Site 1 (Water Oak), day 251) turned out to be 150 g; in experiment [1] (Site 1 (Water Oak), day 281) it was 300 g.
